The text below walks through data of patent US20200339544A1 (JOINT STOCK COMPANY "BIOCAD", priority 2017, published 2020).

A short description of data set [1]: Chemical stability in human blood plasma. It counts as in vitro ADME. As to conditions: pooled human blood plasma; 10 μm; 4 hours at 37° C.; substance amount remaining. In outline:
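Pooled plasma from ten healthy donors was spiked to 10 μM from a 10 mM DMSO stock and held 4 h at 37 °C. After acetonitrile protein precipitation, HPLC peak areas before and after incubation gave the percentage of compound remaining.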

Data set [2] concerns the target T1, DM EGFR (DoubleMutantEGFR, L828R/T790M) (Homo sapiens, UniProt P00533, L858R/T790M).
T1 construct: purchased SignalChem
In words: Inhibition of DM EGFR kinase activity (ADP-Glo). The data set is classed as biochemical. The following applies: for IC50: inhibition of kinase activity, EGFR DM (L828R/T790M); for SI, IC50(WT)/IC50(DM): selectivity index, kinase EGFR WT vs EGFR DM. The essentials: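 Recombinant WT or double-mutant EGFR was incubated with a solution of 0.5 mg/mL peptide substrate and 50 μM ATP for 180 minutes at 37° C. Kinase activity was detected by ADP-Glo luminescence. IC50 values came from a four-parameter logistic fit.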
For orientation: ADP-Glo first removes unused ATP, then detects ADP through luciferase.

Data set [3] is described as follows: Permeability through monolayer of Caco-2 cells. It counts as in vitro ADME. The following applies: human, Caco-2 monolayer; for Papp A→B at 2 h, 10 µM: pH 6.5 upper / pH 7.4 lower, 2 h at 37° C.; for efflux ratio at 2 h, 10 µM: Papp B-A/Papp A-B. From the text:
2) Assessment of permeability through monolayer of Caco-2 cells.
Assessment of permeability through the monolayer of Caco-2 cells allows to evaluate the ability of the candidate compounds to penetrate through biological membranes by active and passive transport.
Caco-2, the cells of the intestinal epithelium, had been cultured in transwell plate inserts with the filters (with pores of 0.4 μm, BD Falcon with High Density) for 21 days, and then the integrity of the monolayer were estimated with Lucifer Yellow (Sigma-Aldrich, USA) by standard protocol. When setting the A→B transfer (“intestinal lumen”—“blood stream” transfer), solutions of test substances were added in a buffer with pH 6.5 (HBSS, 10 mM HEPES, 15 mM glucose solution) with the concentration of 10 μM into the upper chamber; the lower chamber was filled with a buffer with pH 7.4 (HBSS, 10 mM HEPES, 15 mM Glucose, 1% BSA). When setting B→A transfer (“blood stream”—“intestinal lumen” transfer), the upper chamber was filled with the buffer with pH 6.5, and solutions of the test substances were added in the buffer with pH 7.4 at the concentration of 10 μM in the lower chamber. Propranolol was used as a control substance (as it has high permeability).
After incubating for 2 h at 37° C. under 5% CO2, the amounts of test substances were determined in the upper and lower chambers by HPLC using Agilent1200 chromatograph (Agilent, USA) with preliminary protein precipitation with acetonitrile. We used gradient elution (1 mL/min flow rate). We determined the areas of peaks corresponding to the compounds. On the basis of peak areas in the calibration standards we determined the concentration of compound in the initial solution and in the samples from the wells of the upper and lower chambers. Papp, permeability through the cell layer, was calculated using the following formula:
Papp=(C(t)*V)/(C(0)*t*Area), wherein
The value was calculated with the following formula:
efflux=Papp B-A/Papp A-B, wherein • Papp A-B—the volume of permeability in A→B test; • Papp B-A—he volume of permeability in B→A test.
(Caco-2 monolayers are a common model of the intestinal barrier.)

For data set [4], the system named is HCC827 (lung adenocarcinoma, SM, exon19delE746-A750). Description: Antiproliferative activity on HCC827 cells (Alamar Blue). It counts as cell-based. As to conditions: Homo sapiens, antiproliferative test. In outline: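 HCC827 cells (EGFR exon19del E746-A750), 10×10^3/well, attached 16–18 h, then exposed to compounds for 72 h at 37 °C in RPMI-1640 with 2% FBS, ≤1% DMSO. Viability by Alamar Blue fluorescence (ex 540/em 590 nm) after 3–5 h; IC50 by four-parameter logistic fit.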

For the compound `C=CC(=O)Nc1cc(Nc2cc(C(=O)c3ccccc3)ccn2)c(OC)cc1N(C)CCN(C)C` [EGFR_3365_3, N-(5-((4-benzoylpyridin-2-yl)amino)-2-((2-(dimethylamino)ethyl)(methyl)amino)-4-methoxyphenyl)acrylamide], the “Stability in blood plasma, %” value in data set [1] was 82.1%. In data set [2], the midpoint of inhibition, the IC50, lay at 14.5 nM and the “SI, IC50(WT)/IC50(DM)” value worked out at 5.29. Besides, in data set [3], the Papp A→B (in general, how fast a substance crosses the layer from the apical side) at 2 h, 10 µM came out at 5.9 ×10⁻⁶ cm/s and the efflux ratio – broadly, the permeability from basolateral to apical divided by that in the opposite direction, in the common usage – at 2 h, 10 µM is 0.8. For the same compound, the IC50 (as a rule, the concentration that gives 50% inhibition) in data set [4] came out at 2.3 nM.

As to `C=CC(=O)Nc1cc(Nc2nccc(C(=O)c3ccc(F)cc3)n2)c(OC)cc1N(C)CCN(C)C` [EGFR_3365_10, N-(2-((2-(dimethylamino)ethyl)(methyl)amino)-5-((4-(4-fluorobenzoyl)pyrimidin-2-yl)amino)-4-methoxyphenyl) acrylamide], the “Stability in blood plasma, %” value in data set [1] is given as 94.2%. In data set [2], the IC50 was found to be 7.28 nM and the “SI, IC50(WT)/IC50(DM)” value is listed as 29.06. Also, in data set [3], the Papp A→B at 2 h, 10 µM was determined as 2.88 ×10⁻⁶ cm/s and the efflux ratio at 2 h, 10 µM worked out at 0.58. The compound further showed an IC50 in data set [4] of 5.9 nM.

On to `C=CC(=O)Nc1cc(Nc2nccc(C(=O)c3ccccc3Br)n2)c(OC)cc1N(C)CCN(C)C` [EGFR_3365_12, N-(5-((4-(2-bromobenzoyl)pyrimidin-2-yl)amino)-2-((2-(dimethylamino)ethyl) (methyl)amino)-4-methoxyphenyl)acrylamide], for which, in data set [1], the “Stability in blood plasma, %” value was 76.3%. Besides, in data set [2], 25.5 nM corresponded to half-maximal inhibition (IC50) and the “SI, IC50(WT)/IC50(DM)” value is on record as 15.25. In addition, in data set [3], the apparent permeability from apical to basolateral (Papp A→B) at 2 h, 10 µM was 1.94 ×10⁻⁶ cm/s and the efflux ratio at 2 h, 10 µM was found to be 0.98. Besides, the IC50 in data set [4] was 20.3 nM.

On to `C=CC(=O)Nc1cc(Nc2nccc(C(=O)c3ccc(OC)cc3)n2)c(OC)cc1N(C)CCN(C)C` [EGFR_3365_28, N-(2-((2-(dimethylamino)ethyl)(methyl)amino)-4-methoxy-5-((4-(4-methoxybenzoyl)pyrimidin-2-yl)amino)phenyl)acrylamide], for which, in data set [1], the “Stability in blood plasma, %” value is reported as 86.2%. In data set [2], the IC50 worked out at 6.27 nM and the “SI, IC50(WT)/IC50(DM)” value stood at 20.33. In data set [3], the Papp A→B at 2 h, 10 µM was 3.84 ×10⁻⁶ cm/s and the efflux ratio at 2 h, 10 µM came to 1.87. Moreover, in data set [4], the IC50 came to 15.3 nM.

`C=CC(=O)Nc1cc(Nc2nccc(C(=O)c3ccc(OCC)cc3)n2)c(OC)cc1N(C)CCN(C)C` [EGFR_3365_29, N-(2-((2-(dimethylamino)ethyl)(methyl)amino)-5-((4-(4-ethoxybenzoyl)pyrimidin-2-yl)amino)-4-methoxyphenyl) acrylamide]: the “Stability in blood plasma, %” value in data set [1] was determined as 79.7%. For the same compound, in data set [2], 10.7 nM corresponded to half-maximal inhibition (IC50) and the “SI, IC50(WT)/IC50(DM)” value worked out at 18.79. Moreover, in data set [3], the apparent permeability from apical to basolateral (Papp A→B) at 2 h, 10 µM is 4.26 ×10⁻⁶ cm/s and the efflux ratio at 2 h, 10 µM came to 1.5. The same compound returned an IC50 in data set [4] of 6.2 nM.

On to `C=CC(=O)Nc1cc(Nc2nccc(C(=O)c3ccc(OC(C)C)cc3)n2)c(OC)cc1N(C)CCN(C)C` [EGFR_3365_31, N-(2-((2-(dimethylamino)ethyl)(methyl)amino)-5-((4-(4-isopropoxybenzoyl)pyrimidin-2-yl)amino)-4-methoxyphenyl) acrylamide], for which the “Stability in blood plasma, %” value in data set [1] turned out to be 93.1%. Also, in data set [2], the IC50 amounted to 8.65 nM and the “SI, IC50(WT)/IC50(DM)” value is listed as 15.12. Moreover, in data set [3], the Papp A→B at 2 h, 10 µM was determined as 3.7 ×10⁻⁶ cm/s and the efflux ratio at 2 h, 10 µM came out at 1.1. The compound further registered an IC50 in data set [4] of 8.3 nM.

With `C=CC(=O)Nc1cc(Nc2cc(C(=O)c3ccc(OCCC)cc3)ccn2)c(OC)cc1N(C)CCN(C)C` [EGFR_3365_50, N-(2-((2-(dimethylamino)ethyl)(methyl)amino)-4-methoxy-5-((4-(4-propoxybenzoyl)pyridin-2-yl)amino)phenyl)acrylamide], in data set [1], the “Stability in blood plasma, %” value is reported as 89.0%. Moreover, in data set [2], the IC50 turned out to be 3.29 nM and the “SI, IC50(WT)/IC50(DM)” value was 9.74. Besides, in data set [3], the Papp A→B at 2 h, 10 µM was determined as 2 ×10⁻⁶ cm/s and the efflux ratio at 2 h, 10 µM was determined as 0.3. The same compound gave a half-maximal inhibitory concentration (IC50) in data set [4] of 26.9 nM.

Turning to `C=CC(=O)Nc1cc(Nc2cc(C(=O)c3ccc(N4CCCC4)cc3)ccn2)c(OC)cc1N(C)CCN(C)C` [EGFR_3365_56, N-(2-((2-(dimethylamino)ethyl)(methyl)amino)-4-methoxy-5-((4-(4-(pyrrolidin-1-yl)benzoyl)pyridin-2-yl)amino)phenyl)acrylamide], in data set [1], the “Stability in blood plasma, %” value is reported as 83.2%. Further, in data set [2], the half-maximal inhibitory concentration (IC50) is 6.3 nM and the “SI, IC50(WT)/IC50(DM)” value amounted to 19.14. For the same compound, in data set [3], the Papp A→B at 2 h, 10 µM worked out at 1.8 ×10⁻⁶ cm/s and the efflux ratio at 2 h, 10 µM came to 1.7. Also, in data set [4], half-maximal inhibition (IC50) was put at 29.9 nM.

`C=CC(=O)Nc1cc(Nc2nccc(C(=O)c3ccc(N4CCC4)cc3)n2)c(OC)cc1N(C)CCN(C)C` [EGFR_3365_58, N-(5-((4-(4-(azetidin-1-yl)benzoyl)pyrimidin-2-yl)amino)-2-((2-(dimethylamino)ethyl)(methyl)amino)-4-methoxyphenyl)acrylamide]: the “Stability in blood plasma, %” value in data set [1] worked out at 99.7%. Further, in data set [2], the IC50 amounted to 2.36 nM and the “SI, IC50(WT)/IC50(DM)” value is 16.81. Further, in data set [3], the Papp A→B at 2 h, 10 µM came to 5.8 ×10⁻⁶ cm/s and the efflux ratio at 2 h, 10 µM worked out at 1.1. Besides, in data set [4], the IC50 came to 6.23 nM.

For the compound `C=CC(=O)Nc1cc(Nc2nccc(C(=O)c3ccc(N4CC(OC)C4)cc3)n2)c(OC)cc1N(C)CCN(C)C` [EGFR_3365_61, N-(2-((2-(dimethylamino)ethyl)(methyl)amino)-4-methoxy-5-((4-(4-(3-methoxyazetidin-1-yl)benzoyl)pyrimidin-2-yl)amino)phenyl)acrylamide], in data set [1], the “Stability in blood plasma, %” value is given as 91.8%. For the same compound, in data set [2], the IC50 is 2.76 nM and the “SI, IC50(WT)/IC50(DM)” value was found to be 19.27. In data set [3], the Papp A→B at 2 h, 10 µM worked out at 5.5 ×10⁻⁶ cm/s and the efflux ratio at 2 h, 10 µM was 1.8. Moreover, in data set [4], the IC50 worked out at 5.77 nM.

For `C=CC(=O)Nc1cc(Nc2nccc(C(=O)c3ccc(N4CCCC4)cc3)n2)c(OC)cc1N(C)CCN(C)C` [EGFR_3365_63, N-(2-((2-(dimethylamino)ethyl)(methyl)amino)-4-methoxy-5-((4-(4-(pyrrolidin-1-yl)benzoyl)pyrimidin-2-yl)amino)phenyl)acrylamide], the “Stability in blood plasma, %” value in data set [1] is listed as 100.0%. Also, in data set [2], inhibition was half-maximal at 0.94 nM (IC50) and the “SI, IC50(WT)/IC50(DM)” value was 24.32. In data set [3], the Papp A→B at 2 h, 10 µM was found to be 4.9 ×10⁻⁶ cm/s and the efflux ratio at 2 h, 10 µM worked out at 1. In data set [4], this compound returned an IC50 of 4.27 nM.

Turning to `C=CC(=O)Nc1cc(Nc2nccc(C(=O)c3ccc(OCCCC)cc3)n2)c(OC)cc1N(C)CCN(C)C` [EGFR_3365_66, N-(5-((4-(4-butoxybenzoyl)pyrimidin-2-yl)amino)-2-((2-(dimethylamino)ethyl)(methyl)amino)-4-methoxyphenyl)acrylamide], the “Stability in blood plasma, %” value in data set [1] came to 97.0%. Further, in data set [2], the IC50 worked out at 1.86 nM and the “SI, IC50(WT)/IC50(DM)” value was 25.13. Besides, in data set [3], the Papp A→B at 2 h, 10 µM was determined as 1.3 ×10⁻⁶ cm/s and the efflux ratio at 2 h, 10 µM is 0.4. For the same compound, the IC50 in data set [4] was 12.8 nM.

In the case of `C=CC(=O)Nc1cc(Nc2nccc(C(=O)c3ccc(OCCC)cc3OCCC)n2)c(OC)cc1N(C)CCN(C)C` [EGFR_3365_70, N-(2-((2-(dimethylamino)ethyl)(methyl)amino)-5-((4-(2,4-dipropoxybenzoyl)pyrimidin-2-yl)amino)-4-methoxyphenyl)acrylamide], the “Stability in blood plasma, %” value in data set [1] stood at 90.0%. Further, in data set [2], it took 14.7 nM to reach half-maximal inhibition (IC50) and the “SI, IC50(WT)/IC50(DM)” value is listed as 16.96. In addition, in data set [3], the apparent permeability from apical to basolateral (Papp A→B) at 2 h, 10 µM came to 2.5 ×10⁻⁶ cm/s and the efflux ratio at 2 h, 10 µM was found to be 0.4. This compound also showed a concentration for half-maximal inhibition (IC50) in data set [4] of 36.8 nM.
